“Also recorded” adds a separate entry of the source. Positions of bridges follow the written chain, without caps; N, C: chain ends. Non-standard residues stand in square brackets, D forms with d. Residues, ends and D or L forms follow the SMILES beside them. Dab = NCC[C@H](N)C(=O)O
Columns and labels:
human KCNN2 = human KCNN2 (Homo sapiens, UniProt Q9H2S1); test: Thallium flux assay, KCNN2 channel block; assay type: cell-based
Method: The effect of tamapin and Lei-Dab7 to block the KCNN2 channel was assessed by the thallium flux (potassium ion surrogate) assay using FLIPR Potassium Assay KIT (Molecular Devices, CA) and a FLIPR TETRA fluorescence imaging plate reader (Molecular Devices, CA). Human embryonic kidney (HEK) 293 cell line stably expressing human KCNN2 (Charles River, MA) were plated on BioCoat Poly-D-Lysine 384-well Black/Clear Plates (BD Biosciences, NJ) at 15 000 to 30 000 cells per well and incubated at 37°C overnight or until cells form near confluent monolayer. A baseline fluorescence was recorded during the pre-incubation period, followed by activation in the stimulus buffer (K^+-free buffer with 5 mM Tl^+). The effects of tamapin and Lei-Dab7 on KCNN2 to inhibit KCNN2 channel were evaluated at 4 different concentrations (n = 4) each, based on fluorescence changes due to the treatments. The signal elicited by the respective positive control agonist [1 μM A23187 (Tocris, UK)] was set to 0% inhibition, and the signal in the presence of the respective positive control antagonists [3 μM UCL1684 (Tocris, UK)] was set to 100% inhibition. The IC50 values were defined as the concentration at which the percent inhibition equals 50.
To determine the dose of Lei-Dab7 to be tested, we compared the effect of Lei-Dab7 and tamapin in blocking human KCNN2 expressed in HEK293 cells using a thallium-based potassium ion channel assay. […] Based on the effective dose of tamapin in mitigating motor skill–learning deficits in PAE mice (15 μg/kg body weight via i.p.)[17] and higher brain uptake of therapeutics by intranasal delivery than by i.p. delivery, we chose a dose of 3.0 μg/kg body weight to test the effect of intranasal administration of Lei-Dab7.
Supplementary Figure 3. Concentration-response relationships of Lei-Dab7 and Tamapin on the Inhibition of KCNN2 channels. (A, B) The concentration-response relationships of Lei-Dab7 (A) and Tamapin (B) on the inhibition of KCNN2 (SK2) channels examined by the thallium flux assay are presented. […]

rat = system: rat; design: method as in 2 sources, one per row (each row's own in cited_ref): ref 82 = [82]; PMID 15985330; doi:10.1016/j.neulet.2005.05.050; 82. Deschaux O , Bizot JC . Apamin produces selective improvements of learning in rats . Neurosci Lett. 2005; 386 : 5 – 8 . 10.1016/j.neulet.2005.05.050 15985330 ||| ref 26, 82, 83 = [26]; PMID 18561910; doi:10.1016/j.ejphar.2008.05.019; 26. Mpari B , Sreng L , Regaya I , Mourre C . Small-conductance Ca(2+)-activated K(+) channels: heterogeneous affinity in rat brain structures and cognitive modulation by specific blockers . Eur J Pha || [82]; PMID 15985330; doi:10.1016/j.neulet.2005.05.050; 82. Deschaux O , Bizot JC . Apamin produces selective improvements of learning in rats . Neurosci Lett. 2005; 386 : 5 – 8 . 10.1016/j.neulet.2005.05.050 15985330 || [83]; PMID 9148239; doi:10.1016/s0304-3940(97)13367-5; 83. Deschaux O , Bizot JC , Goyffon M . Apamin improves learning in an object recognition task in rats . Neurosci Lett. 1997; 222 : 159 – 162 . 10.1016/s0304-3940(97)13367-5 9148239; conditions: cited from earlier work
[1] = Physiological monitoring (PhysioSuite) after intranasal administration; assay type: in vivo, mouse (CD-1)
Method: Lei-Dab7 or biotinylated Lei-Dab7 (Smartox Biotechnology, France) was dissolved in PBS and administered to mice intranasally at 3.0 μg/kg/day. Vehicle (PBS) only was administered as the control. Briefly, the mouse was held softly on the neck to avoid any movement during drug administration. A 20-μL pipette was used to deliver 3 to 5 μL drug at a time. The tip was placed close enough to the mouse’s nostril at a 45-degree angle, and the drug was slowly ejected into the nostril. The mouse was let to inhale for 3 to 5 seconds and then left in a cage for 5 minutes to fully inhale the drug. This process was repeated until the required amount of drug was administered in a few minutes. The alternate nostril was used to deliver the drug each time to increase the efficiency of administration. Successful delivery by this method was confirmed by detecting biotinylated Lei-Dab7 in the brain, which was collected and immersion-fixed with 4% PFA at 15 minutes after intranasal administration using ABC (Thermo Fisher Scientific, NY) and TSA (PerkinElmer, MA) kits. For the analysis on the effect of treatment, Lei-Dab7 was administered daily throughout the reversal learning test phase of the water T-maze test. Physiological monitoring was recorded at 30 minutes and 24 hours post administration by using PhysioSuite (Kent Scientific, CT).
Supplementary Figure 4. […] Pulse oximetry, heart rate, and body temperature were recorded at 30 minutes and 24 hours post administration of vehicle control (30 minutes only) or Lei-Dab7 (30 minutes, 24 hours). Siblings from the same mother were used as the control for the Lei-Dab7 treatment. […] Data are presented in box plots. The line within the box indicates the median, and the upper and lower edges of the box represent the 25th and 75th percentiles, respectively. The upper and lower whisker boundaries indicate the 10th and 90th percentiles, respectively, and dots indicate outliers.

[2] = P40, 30 minutes and 24 hours post administration, one-way ANOVA, n = 6 animals from 3 litters per group

Sequence of human KCNN2 (Q9H2S1 whole entry): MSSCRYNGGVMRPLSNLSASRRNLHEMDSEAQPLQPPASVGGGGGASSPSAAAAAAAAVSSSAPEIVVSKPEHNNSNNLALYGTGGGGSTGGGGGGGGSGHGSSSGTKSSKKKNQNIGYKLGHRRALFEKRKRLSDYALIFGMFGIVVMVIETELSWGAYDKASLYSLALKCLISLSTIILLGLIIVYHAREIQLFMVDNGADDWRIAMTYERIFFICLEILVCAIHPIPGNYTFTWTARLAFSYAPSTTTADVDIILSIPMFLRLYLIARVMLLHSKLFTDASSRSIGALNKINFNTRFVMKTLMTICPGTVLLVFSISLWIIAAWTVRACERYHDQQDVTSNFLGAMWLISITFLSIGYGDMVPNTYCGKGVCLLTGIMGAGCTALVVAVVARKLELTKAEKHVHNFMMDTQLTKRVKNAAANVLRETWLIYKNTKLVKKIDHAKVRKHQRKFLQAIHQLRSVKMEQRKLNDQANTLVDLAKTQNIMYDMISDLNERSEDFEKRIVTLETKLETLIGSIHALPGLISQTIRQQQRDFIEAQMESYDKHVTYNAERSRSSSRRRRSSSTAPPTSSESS

For `CC[C@H](C)[C@@H]1NC(=O)[C@@H]2CSSC[C@H](NC(=O)[C@H](Cc3ccccc3)NC(=O)[C@H](C)N)C(=O)N[C@@H](CC(N)=O)C(=O)N[C@@H](CC(C)C)C(=O)N[C@@H](CCCNC(=N)N)C(=O)N[C@@H](CCN)C(=O)N[C@H]3CSSC[C@H](NC(=O)[C@H](CCCCN)NC(=O)[C@H](CC(=O)O)NC(=O)CNC1=O)C(=O)N[C@@H](CCC(=O)O)C(=O)N[C@H](C(=O)N[C@H](C(=O)N[C@@H](CCCCN)C(=O)N[C@@H](Cc1c[nH]cn1)C(N)=O)C(C)C)CSSC[C@H](NC(=O)[C@H](CO)NC(=O)[C@H](CC(C)C)NC(=O)[C@H](CCC(N)=O)NC3=O)C(=O)N[C@@H](CCCNC(=N)N)C(=O)N[C@@H](CO)C(=O)N[C@@H](CC(C)C)C(=O)NCC(=O)N[C@@H](CC(C)C)C(=O)N[C@@H](CC(C)C)C(=O)NCC(=O)N[C@@H](CCCCN)C(=O)N2` [Lei-Dab7, Leiurotoxin-1 Dab7] (H-AFCNLR[Dab]CQLSCRSLGLLGKCIGDKCECVKH-NH2; disulfide 3-21, 8-26, 12-28), the IC50 (human KCNN2; HEK293 stably expressing human KCNN2, thallium flux, FLIPR Potassium Assay Kit, FLIPR TETRA, 4 concentrations, n = 4, 0% = 1 μM A23187, 100% = 3 μM UCL1684) is given as 720 nM, the “IC50 of Lei-Dab7 relative to tamapin (times higher)” value (human KCNN2; ratio of IC50 Lei-Dab7 to IC50 tamapin, human KCNN2 in HEK293) is given as > 10 times and the “negative effects on learning in rats” value (rat) is given as “no negative effects”. For the same molecule, the “toxicity, 3 primary physiological measures” value ([1]; 3.0 μg/kg intranasal, pulse oximetry, heart rate, body temperature, 30 minutes or 24 hours post administration) was “without apparent acute physiological adverse effects; also recorded: No severe toxicity”, the “body temperature vs vehicle” value [1, 2] was “no statistically significant differences” and the “heart rate vs vehicle” value [1, 2] was “no statistically significant differences”. For the same molecule, the “pulse oximetry vs vehicle” value [1, 2] was “no statistically significant differences” and the “adverse effects in control animals” value ([1]; intranasal, control animals (Figs. 5, S4)) was “no apparent adverse effects in control animals”.

Source: article PMC12418948, “Intranasal Administration of KCNN2 Blocking Peptide Improves Deficits in Cognitive Flexibility in Mouse Model of Fetal Alcohol Spectrum Disorders” (International Journal of Neuropsychopharmacology, 2025)
